Results taken from EP1049703B1, “N-[2-(5-BENZYLOXYCARBONYL-AMINO-6-OXO-2-(4-FLUOROPHENYL)-1,6-DIHYDRO-1-PYRIMIDINYL)ACETOXYL]-L-ASPARTIC ACID ALDEHYDE AS AN IN VIVO INHIBITOR OF INTERLEUKIN-1BETA CONVERTING ENZYME” (WARNER-LAMBERT COMPANY, priority 1998, dated 1999).
pIC50, pKi: −log10 of the molar value.

What was measured:
[1] = test system: IL-1β production in human peripheral blood mononuclear cells (PBMCs); assay: PBMC cellular assay: LPS-stimulated IL-1β production (ELISA); assay type: cell-based; settings: PBMCs stimulated overnight with 10 ng/mL LPS, concentration which reduces IL-1β levels by 50%, read-out: 3. PBMC IC50
From the text: Further evidence that compound 1 is a potent inhibitor of ICE is provided by its ability to inhibit IL-1β production in human peripheral blood mononuclear cells (PBMCs) as described herein. PBMCs are isolated from heparinized blood by centrifugation over a ficoll cushion, then washed three times with phosphate-buffered saline. PBMCs are suspended in a medium containing RPMI 1640 with glutamine, penicillin, streptomycin, and 2% human AB serum, then plated at 10^6 cells per well in 96 well flat bottom plates. PBMCs are stimulated overnight with 10 ng/mL of lipopolysaccharide (LPS, E. Coli strain 0111:B4; Calbiochem) in the presence or absence of compound 1 or 2. Medium is harvested, and the level of mature IL-1β was determined using an ELISA kit from R & D Systems. Compound inhibition is assessed by determining the concentration of agent which reduces IL-1β levels by 50%. Cells were cultured for an additional 4 hours in the presence of 3-(4, 5-dimethylthiazol-2-yl)-2, 5-diphenyltetrazolium bromide (MTT) to determine viability. Compound toxicity can, therefore, be assessed by determining the concentration of agent which kills 50% of the cells (IC50).

[2] = target: T1, ICE (Homo sapiens, UniProt P29466); assay: ICE inhibition studies (fluorogenic substrate Ac-Tyr-Val-Ala-Asp-AMC, Ki); assay type: biochemical
T1 sequence (P29466 120-297 limits assumed): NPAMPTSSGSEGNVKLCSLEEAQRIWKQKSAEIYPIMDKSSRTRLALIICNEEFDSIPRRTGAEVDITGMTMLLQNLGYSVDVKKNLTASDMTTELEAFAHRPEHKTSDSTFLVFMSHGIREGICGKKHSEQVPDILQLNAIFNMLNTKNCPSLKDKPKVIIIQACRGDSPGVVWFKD
T1 sequence (P29466 317-404 limits assumed): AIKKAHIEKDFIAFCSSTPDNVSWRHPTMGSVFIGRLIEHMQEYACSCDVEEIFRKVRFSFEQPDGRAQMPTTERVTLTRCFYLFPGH
Protocol: ICE (0.24 nM final concentration) is added to 400 µL of HGDE buffer (100 mM HEPES, 20% glycerol, 5 mM DTT, 0.5 mM EDTA) containing 15 µM substrate (Ac-Tyr-Val-Ala-Asp-AMC; KM = 15 µM) plus vehicle (DMSO) or inhibitor at concentrations bracketing the Ki. Substrate hydrolysis is monitored for 300 seconds by observing the fluorescence of released AMC using excitation at 380 nm and emission at 460 nm. Mean rates of substrate hydrolysis are evaluated by linear-regression analysis of the fluorescence vs time traces. To evaluate Ki, plots of percent inhibition vs inhibitor concentration are fit by non-linear regression to a reversible, competitive model: [formula] where the competition factor (1 + [S]/KM) = 2.

[3] = test system: IL-1β production; assay: Mouse model: LPS-induced plasma IL-1β production; assay type: in vivo, Female C57BL/6 mice; settings: for inhibition of IL-1β production: 5 mg/kg LPS i.v. at T0, compound i.v. at 3.75 hours, plasma at T4h, compared to vehicle treated animals; for production of IL-1β (result in words): summary statement
Protocol: Female C57BL/6 mice are injected intravenously with 5 mg/kg lipopolysaccaride (LPS) (E. coli 0111:B4) at T0; this induces production of the cytokine interleukin-1β. After 3.75 hours from the administration of LPS, the mice are injected intravenously with either vehicle or a test compound. The mice are bled at T4h and plasma analyzed for IL-1β by ELISA. The vehicle is 5% DMSO/20% Trappsol/3% Dextrose/NMDG.

[4] = test system: excitotoxic brain damage; assay: Excitotoxic brain damage in neonatal rats; assay type: in vivo, Seven-day-old rat pups; settings: for % Loss (percent loss of hemisphere weight): 30 mg/kg intraperitoneal 0.25 hours after 15 nMoles of MDA into right caudate nucleus, five days later; for extent of exitotoxic brain damage in rat pups (result in words): summary statement
Protocol: Compound 1 and compound 2 are tested in a model of excitotoxic brain damage in neonatal rats. Seven-day-old rat pups are anesthetized with ether, placed in a head holder and injected with 15 nMoles of MDA into the right caudate nucleus. The pups are treated by intraperitoneal injection with drug (30 mg/kg) or vehicle (0.2% methocel in water) 0.25 hours later and then returned to their home cage. Five days following this excitotoxic challenge, the pups are sacrificed, their brains removed and hemispheres weighed. The loss in weight of the injected hemisphere relative to the contralateral hemisphere is an estimate of the degree of brain necrosis. […] Importantly, such protection is not seen at the same dose of compound 2.

[5] = target: T1, ICE; assay: ICE colorimetric dose-response (IC50) assay; assay type: biochemical; settings: about 24 nM ICE, 60 minutes preincubation, 50 µM Ac-Tyr-Val-Ala-Asp-pNA; read-out: 2. ICE IC50
Protocol: Diluted inhibitor stocks are prepared by two-fold serial dilution from a primary stock whose concentration is selected (based on screening results or on prior attempts at IC50 evaluation) to achieve approximately 95% inhibition in the most concentrated well. Aliquots of each dilution are transferred to a microtitre plate in triplicate.
ICE enzyme is diluted to approximately 24 nM in HGE buffer (100 mM Hepes pH 7.5, 0.5 mM EDTA, 20% glycerol, 0.1% Bovine Serum Albumin (BSA), and activated by adding dithiothreitol (DTT) to a final concentration of 5 mM. The activated enzyme is then aliquoted into wells containing inhibitor or vehicle, and the plate is preincubated for 60 minutes at ambient temperature. Substrate (Ac-Tyr-Val-Ala-Asp-pNA) is added to each well to a final concentration of 50 µM, and plates are placed in the microtitre plate-reader thermostated to 25°°C. Beginning 5 minutes after addition of substrate, absorbance (405 nm) of wells is monitored for 1 hour, and activity is calculated as the mean rate of change in absorbance during this interval.

[6] = target: T2, Ich-2 (Caspase 4) (Homo sapiens, UniProt P49662); assay: Ich-2 colorimetric dose-response (IC50) assay; assay type: biochemical; settings: enzyme 64 nM, 60 µM Ac-Leu-Glu-Val-Asp-pNA
T2 sequence (P49662 81-270 limits assumed): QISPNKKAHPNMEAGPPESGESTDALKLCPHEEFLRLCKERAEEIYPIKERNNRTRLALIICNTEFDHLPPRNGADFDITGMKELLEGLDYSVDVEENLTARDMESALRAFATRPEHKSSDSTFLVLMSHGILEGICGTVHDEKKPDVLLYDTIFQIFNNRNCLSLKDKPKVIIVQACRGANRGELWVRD
T2 sequence (P49662 290-377 limits assumed): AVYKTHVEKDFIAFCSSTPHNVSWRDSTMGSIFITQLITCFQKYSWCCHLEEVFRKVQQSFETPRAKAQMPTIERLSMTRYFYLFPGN
Protocol: Inhibition of Ich-2 (Caspase 4) enzyme is assayed as described above for ICE, except that enzyme is used at 64 nM, and 60 µM of the Ich-2-specific substrate Ac-Leu-Glu-Val-Asp-pNA is used instead of the ICE substrate Ac-Tyr-Val-Ala-Asp-pNA.

[7] = test system: focal cerebral ischemia; assay: Ischemic brain damage model: permanent (MCAOp) and transient (MCAOt) focal cerebral ischemia; assay type: in vivo, CD-1 mice
Protocol: Compound 1 is tested in both permanent (MCAOp) and transient (MCAOt) models of focal cerebral ischemia in the mouse. The middle cerebral artery is occluded by an intraluminal suture in CD-1 mice. In the transient model, the suture is withdrawn after 1 hour and in both studies, mice are sacrificed at 24 hours, and brain lesion size is determined from H and E stained sections. Drug or vehicle is administered IP at -5, 60, and 180 minutes from the time of vessel occlusion at doses of 25 and 50 mg/kg × 3 (MCAOp) or 50 mg/kg × 3 (MCAOt). In the more severe MCAOp, there is a small reduction in lesion size (13%, p <0.04, one-tailed t-test) at the high dose whereas, in the less severe MCAOt, the lesion size is 60% smaller in the drug treated mice (p <0.002).

Row | SMILES | pIC50 [1] | Mode of Inhib. [2] | inhibition of IL-1β production [3] [%] | production of IL-1β (result in words) [3] | % Loss (percent loss of hemisphere weight) [4] [%] | extent of exitotoxic brain damage in rat pups (result in words) [4] | pIC50 [5] | pIC50 [6] | pKi ([2]; 0.24 nM ICE, 15 µM Ac-Tyr-Val-Ala-Asp-AMC, reversible competitive model, read-out: 1. ICE Ki) | reduction in lesion size ([7]; MCAOp (permanent), high dose 50 mg/kg × 3 IP at -5, 60, 180 minutes, 24 hours) [%] | lesion size smaller in drug treated mice ([7]; MCAOt (transient, suture withdrawn after 1 hour), 50 mg/kg × 3 IP, 24 hours) [%] | arterial lesion size in ischemic brain damage (result in words) ([7]; mice, middle cerebral artery occlusion after reperfusion, summary statement)
1 | O=C(O)CC(NC(=O)Cn1c(-c2ccc(F)cc2)ncc(NC(=O)OCc2ccccc2)c1=O)C(=O)COc1cc(C(F)(F)F)nn1-c1ccccc1 (centres unmarked) [Compound 2, reference compound] | 5.66 | irreversible | 11 | inactive | 20.8 | not seen | 8.40 | 8.30 | – | – | – | –
2 | O=CC(CC(=O)O)NC(=O)Cn1c(-c2ccc(F)cc2)ncc(NC(=O)OCc2ccccc2)c1=O [Compound 1, N-[2-(5-benzyloxycarbonyl-amino-6-oxo-2-(4-fluorophenyl)-1,6-dihydro-1-pyrimidinyl)acetoxyl]-L-aspartic acid aldehyde] | 5.74 | reversible | 48 | significantly blocks | 16.1 | significantly reduces | 6.31 | 5.01 | 7.22 | 13 | 60 | reduced arterial lesion size
